Read-outs that look alike come from different tables or passages of the source. Some results are limits rather than exact numbers.

The target in assay [1] is T1, full-length human CSNK1A1 (Homo sapiens, UniProt P48729).
T1 construct: N-terminal Glutathion-S-Transferase (GST) and full-length human CSNK1A1; purchased Life Technologies PV4174; host or cells: baculovirus infected insect cells
In words: CSNK1A1 High ATP Assay (ADP-Glo, 1 mM ATP).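 Also: 30 min kinase reaction at 22 °C with 100 µM peptide substrate.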 The format is biochemical. The following applies: Table 3, read-out: CSNK1A1 high ATP assay IC50 [mol/l] (median). The gist of the method: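 Kinase activity taken as ADP generated, quantified by ADP-Glo luminescence after 1 h ATP depletion and 1 h detection at 22 °C. Enzyme is GST–full-length human CSNK1A1 (insect cell-expressed), pre-bound to compound for 15 min, with phosphopeptide substrate and 1 mM ATP.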
A general note: In ADP-Glo the light output rises with the ADP produced.

Assay [2] has as its target T2, wild-type Epidermal Growth Factor Receptor (EGFR) (Homo sapiens, UniProt P00533).
T2 construct: a fragment of human EGFR (amino acids R669 to A1210); made in house; host or cells: Sf9 insect cells
In words: WT-EGFR Kinase Assay (TR-FRET, 2 mM ATP). The format is biochemical. In short, it runs like this:
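GST-fused human EGFR fragment (R669-A1210) from Sf9 cells, typically 7.6 pg/μL, pre-incubated with compound 15 min at 22° C in Hepes pH 7.0 buffer with MgCl2, DTT and vanadate; biotinylated peptide substrate. After EDTA stop, phosphopeptide detected by TR-FRET (anti-phosphotyrosine Tb-cryptate/streptavidin-XL665), 665/620 nm emission ratio.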
Background: TR-FRET usually uses a lanthanide donor and a delayed reading to cut background.

Setting [3] is: EGFR Wildtyp 2 mM ATP IC50 [mol/l] (median), Table 4.
The mark [4] stands for this setting: read-out: EGFR Wildtyp 2 mM ATP IC50 [mol/l] (median), Table 4.

T2 sequence (P00533 669-1210): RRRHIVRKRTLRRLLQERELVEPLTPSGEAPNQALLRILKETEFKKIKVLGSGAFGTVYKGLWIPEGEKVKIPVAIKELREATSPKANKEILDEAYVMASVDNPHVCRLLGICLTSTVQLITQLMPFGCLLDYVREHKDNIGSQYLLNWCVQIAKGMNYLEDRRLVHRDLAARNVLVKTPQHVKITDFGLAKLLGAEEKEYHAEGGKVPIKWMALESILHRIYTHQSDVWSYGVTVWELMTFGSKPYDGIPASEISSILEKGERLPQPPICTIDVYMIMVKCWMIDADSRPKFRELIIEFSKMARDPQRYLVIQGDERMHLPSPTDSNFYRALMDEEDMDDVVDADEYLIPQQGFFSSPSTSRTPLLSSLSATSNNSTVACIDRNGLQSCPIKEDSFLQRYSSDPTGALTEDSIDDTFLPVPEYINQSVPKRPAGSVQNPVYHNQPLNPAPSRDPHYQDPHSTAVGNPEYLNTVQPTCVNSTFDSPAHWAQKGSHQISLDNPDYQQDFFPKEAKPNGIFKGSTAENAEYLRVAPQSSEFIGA
T1 sequence (P48729 whole entry): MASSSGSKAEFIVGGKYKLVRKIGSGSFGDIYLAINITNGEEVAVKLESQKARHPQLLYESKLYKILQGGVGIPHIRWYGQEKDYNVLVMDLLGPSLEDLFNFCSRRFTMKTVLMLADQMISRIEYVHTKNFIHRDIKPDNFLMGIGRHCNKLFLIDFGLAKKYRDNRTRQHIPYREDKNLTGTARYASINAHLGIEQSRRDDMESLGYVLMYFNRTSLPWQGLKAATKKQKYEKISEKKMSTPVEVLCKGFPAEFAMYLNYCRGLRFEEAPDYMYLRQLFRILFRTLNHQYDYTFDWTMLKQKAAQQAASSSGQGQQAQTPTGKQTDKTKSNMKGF

For `O=C(Nc1cc(-c2[nH]c3c(OCC(F)F)ncnc3c2-c2ccccn2)ccn1)C(CC(F)F)c1ccc(F)cc1` (racemic) [Example 78, (2RS)—N-{4-[4-(2,2-difluoroethoxy)-7-(pyridin-2-yl)-5H-pyrrolo[3,2-d]pyrimidin-6-yl]pyridin-2-yl}-4,4-difluoro-2-(4-fluorophenyl)butanamide], the IC50 in assay [1] was 0.00516 µM; in assay [2] (setting [3]), greater than 20 µM.
Take `COc1cnc2c(-c3ccccn3)c(-c3ccnc(NC(=O)C(CC(F)F)c4ccc(F)cc4)c3)[nH]c2c1` (single isomer, unassigned) [Example 83, 4,4-difluoro-2-(4-fluorophenyl)-N-{4-[6-methoxy-3-(pyridin-2-yl)-1H-pyrrolo[3,2-b]pyridin-2-yl]pyridin-2-yl}butanamide]: the results for the IC50 in assay [1] and in assay [2] (setting [4]) were 0.00986 µM and greater than 20 µM, respectively.
Regarding `O=C(Nc1cc(-c2[nH]c3cc(Cl)nnc3c2-c2ccccn2)ccn1)C(CC(F)F)c1ccc(F)cc1` (racemic) [Example 68, (2RS)—N-{4-[3-chloro-7-(pyridin-2-yl)-5H-pyrrolo[3,2-c]pyridazin-6-yl]pyridin-2-yl}-4,4-difluoro-2-(4-fluorophenyl)butanamide], the IC50 in assay [1] is 0.00693 µM; in assay [2] (setting [3]), greater than 20 µM.
For `O=C(Nc1cc(-c2[nH]c3c(O[C@H]4CCOC4)ncnc3c2-c2ccccn2)ccn1)C(CC(F)F)c1ccc(F)cc1` (mixture of isomers) [Example 72, (2RS)-4,4-difluoro-2-(4-fluorophenyl)-N-{4-[4-{[(3S)-oxolan-3-yl]oxy}-7-(pyridin-2-yl)-5H-pyrrolo[3,2-d]pyrimidin-6-yl]pyridin-2-yl}butanamide], the IC50 in assay [1] was 0.0071 µM; in assay [2] (setting [3]) it was greater than 20 µM.
With `O=C(Nc1cc(-c2[nH]c3c(N4CCOCC4)cc(F)nc3c2-c2ccccn2)ccn1)C(CC(F)F)c1ccc(F)cc1` (racemic) [Example 69, (2RS)-4,4-difluoro-N-{4-[5-fluoro-7-(morpholin-4-yl)-3-(pyridin-2-yl)-1H-pyrrolo[3,2-b]pyridin-2-yl]pyridin-2-yl}-2-(4-fluorophenyl)butanamide], the values for the IC50 in assay [1] and in assay [2] (setting [3]) were 0.0104 µM and greater than 20 µM, respectively.
For `O=C(Nc1cc(-c2[nH]c3ccc(Cl)nc3c2-c2ccccn2)ccn1)C(CC(F)F)c1ccc(F)cc1` (racemic) [Example 70, (2RS)—N-{4-[5-chloro-3-(pyridin-2-yl)-1H-pyrrolo[3,2-b]pyridin-2-yl]pyridin-2-yl}-4,4-difluoro-2-(4-fluorophenyl)butanamide], the figures for the IC50 in assay [1] and in assay [2] (setting [3]) were 0.00543 µM and greater than 20 µM, respectively.
For the compound `O=C(Nc1cc(-c2[nH]c3c(OC[C@H]4COCCO4)cc(F)nc3c2-c2ccccn2)ccn1)C(CC(F)F)c1ccc(F)cc1` (single isomer, unassigned) [Example 51, (2R or S)—N-{4-[7-{[(2R)-1,4-dioxan-2-yl]methoxy}-5-fluoro-3-(pyridin-2-yl)-1H-pyrrolo[3,2-b]pyridin-2-yl]pyridin-2-yl}-4,4-difluoro-2-(4-fluorophenyl)butanamide], the results for the IC50 in assay [1] and in assay [2] (setting [3]) were 0.00465 µM and greater than 20 µM, respectively.
With `O=C(Nc1cc(-c2[nH]c3ccnnc3c2-c2ccccn2)ccn1)C(CC(F)F)c1ccc(F)cc1` (single isomer, unassigned) [Example 67, (2R or S)-4,4-difluoro-2-(4-fluorophenyl)-N-{4-[7-(pyridin-2-yl)-5H-pyrrolo[3,2-c]pyridazin-6-yl]pyridin-2-yl}butanamide], the results for the IC50 in assay [1] and in assay [2] (setting [4]) were 0.022 µM and greater than 20 µM, respectively.
Consider `O=C(Nc1cc(-c2[nH]c3nc(F)cnc3c2-c2ccccn2)ccn1)C(CC(F)F)c1ccc(F)cc1` (racemic) [Example 60, (2RS)-4,4-difluoro-2-(4-fluorophenyl)-N-{4-[3-fluoro-7-(pyridin-2-yl)-5H-pyrrolo[2,3-b]pyrazin-6-yl]pyridin-2-yl}butanamide], for which the IC50 is 0.00581 µM in assay [1] and greater than 20 µM in assay [2] (setting [3]).
Turning to `O=C(Nc1cc(-c2[nH]c3ccnnc3c2-c2ccccn2)ccn1)C(CC(F)F)c1ccc(F)cc1` (single isomer, unassigned) [Example 66, (2R or 2S)-4,4-difluoro-2-(4-fluorophenyl)-N-{4-[7-(pyridin-2-yl)-5H-pyrrolo[3,2-c]pyridazin-6-yl]pyridin-2-yl}butanamide], the values for the IC50 in assay [1] and in assay [2] (setting [3]) were 0.00243 µM and greater than 20 µM, respectively.
On to `O=C(Nc1cc(-c2[nH]c3ccc(F)nc3c2-c2ccccn2)ccn1)C(CC(F)F)c1ccc(F)cc1` (racemic) [Example 1, 4,4-difluoro-2-(4-fluorophenyl)-N-{4-[5-fluoro-3-(pyridin-2-yl)-1H-pyrrolo[3,2-b]pyridin-2-yl]pyridin-2-yl}butanamide], for which the IC50 is 0.0613 µM in assay [1] and greater than 20 µM in assay [2] (setting [3]).
On to `Cc1cnc2c(-c3ccccn3)c(-c3ccnc(NC(=O)C(CC(F)F)c4ccc(F)cc4)c3)[nH]c2n1` (single isomer, unassigned; (+)) [Example 86, (+)-4,4-difluoro-2-(4-fluorophenyl)-N-{4-[3-methyl-7-(pyridin-2-yl)-5H-pyrrolo[2,3-b]pyrazin-6-yl]pyridin-2-yl}butanamide], for which the results for the IC50 in assay [1] and in assay [2] (setting [3]) were 0.00289 µM and greater than 20 µM, respectively.
In the case of `O=C(Nc1cc(-c2[nH]c3ncc(F)nc3c2-c2ccccn2)ccn1)C(CC(F)F)c1ccc(F)cc1` (single isomer, unassigned) [Example 64, (2R or S)-4,4-difluoro-2-(4-fluorophenyl)-N-{4-[2-fluoro-7-(pyridin-2-yl)-5H-pyrrolo[2,3-b]pyrazin-6-yl]pyridin-2-yl}butanamide], the IC50 in assay [1] is 0.023 µM; in assay [2] (setting [4]), greater than 20 µM.
For the compound `O=C(Nc1cc(-c2[nH]c3c(OCC(F)F)ncnc3c2-c2ccccn2)ccn1)C(CC(F)F)c1ccc(F)cc1` (single isomer, unassigned) [Example 80, (2R or S)—N-{4-[4-(2,2-difluoroethoxy)-7-(pyridin-2-yl)-5H-pyrrolo[3,2-d]pyrimidin-6-yl]pyridin-2-yl}-4,4-difluoro-2-(4-fluorophenyl)butanamide], the IC50 in assay [1] is 0.0169 µM; in assay [2] (setting [4]), greater than 20 µM.
For `O=C(Nc1cc(-c2[nH]c3ccnnc3c2-c2ccccn2)ccn1)C(CC(F)F)c1ccc(F)cc1` (racemic) [Example 65, (2RS)-4,4-difluoro-2-(4-fluorophenyl)-N-{4-[7-(pyridin-2-yl)-5H-pyrrolo[3,2-c]pyridazin-6-yl]pyridin-2-yl}butanamide], the IC50 in assay [1] was 0.00275 µM; in assay [2] (setting [3]) it was greater than 20 µM.
As for `O=C(Nc1cc(-c2[nH]c3c(O[C@H]4CCOC4)ncnc3c2-c2ccccn2)ccn1)C(CC(F)F)c1ccc(F)cc1` (single isomer, unassigned) [Example 74, (2R or S)-4,4-difluoro-2-(4-fluorophenyl)-N-{4-[4-{[(3S)-oxolan-3-yl]oxy}-7-(pyridin-2-yl)-5H-pyrrolo[3,2-d]pyrimidin-6-yl]pyridin-2-yl}butanamide], the IC50 in assay [1] was 0.0358 µM; in assay [2] (setting [4]), greater than 20 µM.
With `O=C(Nc1cc(-c2[nH]c3c(OC[C@@H]4COCCO4)cc(F)nc3c2-c2ccccn2)ccn1)C(CC(F)F)c1ccc(F)cc1` (mixture of isomers) [Example 57, (2RS)—N-(4-{7-[(2S)-1,4-dioxan-2-ylmethoxy]-5-fluoro-3-(pyridin-2-yl)-1H-pyrrolo[3,2-b]pyridin-2-yl}pyridin-2-yl)-4,4-difluoro-2-(4-fluorophenyl)butanamide], the IC50 in assay [1] is 0.00789 µM; in assay [2] (setting [3]) it was greater than 20 µM.

These data come from US12692261B2, “Substituted heterocyclic compounds and therapeutic uses thereof” (Bayer Aktiengesellschaft, priority 2020, dated 2026).
